Test results: ChEMBL document CHEMBL1641449, “A novel transition state analog inhibitor of guanase based on azepinomycin ring structure: Synthesis and biochemical assessment of enzyme inhibition” (Bioorg Med Chem Lett, 2011)

Biological target: T1, Guanine deaminase (Homo sapiens, UniProt Q9Y2T3)
T1 sequence (Q9Y2T3 whole entry): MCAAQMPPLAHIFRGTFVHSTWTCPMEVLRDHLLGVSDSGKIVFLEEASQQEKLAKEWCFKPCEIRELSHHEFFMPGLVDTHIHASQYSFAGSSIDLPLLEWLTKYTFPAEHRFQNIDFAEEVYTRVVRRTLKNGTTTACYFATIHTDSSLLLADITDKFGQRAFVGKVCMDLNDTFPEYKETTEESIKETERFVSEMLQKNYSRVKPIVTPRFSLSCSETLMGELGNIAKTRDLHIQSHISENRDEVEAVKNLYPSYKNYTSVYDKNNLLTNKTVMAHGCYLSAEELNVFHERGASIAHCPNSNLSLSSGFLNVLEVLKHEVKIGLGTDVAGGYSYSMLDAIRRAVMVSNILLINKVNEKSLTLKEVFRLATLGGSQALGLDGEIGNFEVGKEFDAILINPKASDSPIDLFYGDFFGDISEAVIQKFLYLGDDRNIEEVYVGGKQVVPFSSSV
Experiment: Competitive inhibition of guanase by Lineweaver-Burk plot analysis

## O=C(NC1(CO)NC(=O)c2ncn(Cc3ccccc3)c2NC1=O)OCc1ccccc1 (stereo unspecified)
  Ki: 16.7 µM
